This passage reports melting point results from patent publication US8658666B2, “Substituted imidazoquinolines and imidazonaphthyridines” (3M Innovative Properties Company, priority 2005, dated 2014).

Counter-ions that a name gives are not always drawn.

Consider `CCc1nc2c(N)nc3cc(CCC(=O)N4CCSC4)ccc3c2n1CC(C)(C)O` [Example 103, 1-{4-Amino-2-ethyl-7-[3-oxo-3-(1,3-thiazolidin-3-yl)propyl]-1H-imidazo[4,5-c]quinolin-1-yl}-2-methylpropan-2-ol], for which the melting point is 210 to 212 °C.
In the case of `CC(C)(O)Cn1cnc2c(N)nc3cc(CCS(C)(=O)=O)ccc3c21` [Example 99], the melting point is 269 to 271 °C.
Turning to `COCCc1nc2c(N)nc3ccc(CCC(=O)N(C)C)cc3c2n1CCCN1CCCC1=O` [Example 102, 3-{4-Amino-2-(2-methoxyethyl)-1-[3-(2-oxo-pyrrolidin-1-yl)propyl]-1H-imidazo[4,5-c]quinolin-8-yl}-N,N-dimethylpropanamide], the melting point fell in the range of 184 to 186 °C.
With `CCOCc1nc2c(N)nc3cc(/C=C/C(=O)OC)ccc3c2n1CCCCN1CCCS1(=O)=O` [Example 9, Methyl(2E)-3-[4-amino-1-[4-(1,1-dioxidoisothiazolidin-2-yl)butyl]-2-(ethoxymethyl)-1H-imidazo[4,5-c]quinolin-7-yl]prop-2-enoate], the melting point is 162 to 163 °C.
Turning to `CCc1nc2c(N)nc3cc(/C=C/C(=O)OC)ccc3c2n1CC(C)(C)O` [Example 17, Methyl(2E)-3-[4-amino-2-ethyl-1-(2-hydroxy-2-methylpropyl)-1H-imidazo[4,5-c]quinolin-7-yl]prop-2-enoate], the melting point lay within 238 to 240 °C.
`CCc1nc2c(N)nc3cc(CCCNC(C)=O)ccc3c2n1CC1CCOCC1` [Example 125, N-{3-[4-amino-2-ethyl-1-(tetrahydro-2H-pyran-4-ylmethyl)-1H-imidazo[4,5-c]quinolin-7-yl]propyl}acetamide] gave a melting point of 209 to 211 °C.
Compound `CCOCc1nc2c(N)nc3cc(CCC(=O)N4CCOCC4)ccc3c2n1CC(C)(C)O` [Example 14, 1-[4-Amino-2-(ethoxymethyl)-7-(3-morpholin-4-yl-3-oxopropyl)-1H-imidazo[4,5-c]quinolin-1-yl]-2-methylpropan-2-ol] yielded a melting point of 118 to 119 °C.
The compound `CCOCc1nc2c(N)nc3cc(NC(=O)C(C)C)ccc3c2n1CCCOC(C)C` [Example 3, N-[4-Amino-2-ethoxymethyl-1-(3-isopropoxypropyl)-1H-imidazo[4,5-c]quinolin-7-yl]-2-methylpropanamide] gave a melting point of 214 to 215 °C.
The result for `COCc1nc2c(N)nc3cc(CCC(=O)N(C)C)ccc3c2n1CC(C)(C)O` [Example 108, 3-[4-Amino-1-(2-hydroxy-2-methylpropyl)-2-(methoxymethyl)-1H-imidazo[4,5-c]quinolin-7-yl]-N,N-dimethylpropanamide] reads 142 to 145 °C; that for `CCOCc1nc2c(N)nc3cc(/C=C/Sc4ccccc4)ccc3c2n1CCCOC(C)C` (as salt: hydrobromid) [Example 1, 2-Ethoxymethyl-1-(3-isopropoxypropyl)-7-[(E)-2-(phenylthio)ethenyl]-1H-imidazo[4,5-c]quinolin-4-amine], 220 to 221 °C.
Consider `CCOC(=O)/C=C/c1ccc2c(c1)nc(N)c1nc(CC)n(CC3CCOCC3)c12` [Example 131, Ethyl (2E)-3-[4-amino-2-ethyl-1-(tetrahydro-2H-pyran-4-ylmethyl)-1H-imidazo[4,5-c]quinolin-7-yl]prop-2-enoate], for which the melting point was 209 to 210 °C.
As for `CCc1nc2c(N)nc3cc(CCS(C)(=O)=O)ccc3c2n1CC1CCOCC1` [Example 120], the melting point lay within 246.5 to 249 °C.
For the compound `CC(C)(O)Cn1c(CO)nc2c(N)nc3cc(CCCNS(C)(=O)=O)ccc3c21` [Example 116, N-{3-[4-Amino-2-(hydroxymethyl)-1-(2-hydroxy-2-methylpropyl)-1H-imidazo[4,5-c]quinolin-7-yl]propyl}methanesulfonamide], the melting point is 202 to 205 °C.
In the case of `CCc1nc2c(N)nc3cc(CCNS(C)(=O)=O)ccc3c2n1CC(C)(C)O` [Example 118, N-{2-[4-Amino-2-ethyl-1-(2-hydroxy-2-methylpropyl)-1H-imidazo[4,5-c]quinolin-7-yl]ethyl}methanesulfonamide] it was 149 to 152 °C.
In the case of `CCOCc1nc2c(N)nc3cc(CCCCNC(C)=O)ccc3c2n1CCCOC(C)C` [Example 5, N-{4-[4-Amino-2-ethoxymethyl-1-(3-isopropxypropyl)-1H-imidazo[4,5-c]quinolin-7-yl]butyl}acetamide] it was 122 to 124 °C.
For `COCc1nc2c(N)nc3cc(CCC(N)=O)ccc3c2n1CC(C)(C)O` [Example 113, 3-[4-Amino-1-(2-hydroxy-2-methylpropyl)-2-(methoxymethyl)-1H-imidazo[4,5-c]quinolin-7-yl]propanamide], the melting point fell in the range of 228 to 230 °C.
The result for `COC(=O)CCc1ccc2c(c1)nc(N)c1ncn(CC(C)(C)O)c12` [Example 16, Methyl 3-[4-amino-1-(2-hydroxy-2-methylpropyl)-1H-imidazo[4,5-c]quinolin-7-yl]propanoate] reads 201 to 205 °C; that for `CCc1nc2c(N)nc3cc(CCCN)ccc3c2n1CC1CCOCC1` [Example 123, 7-(3-Aminopropyl)-2-ethyl-1-(tetrahydro-2H-pyran-4-ylmethyl)-1H-imidazo[4,5-c]quinolin-4-amine], 217 to 220 °C; that for `COCc1nc2c(N)nc3cc(CCC(=O)N4CCOCC4)ccc3c2n1CC(C)(C)O` [Example 106, 1-[4-Amino-2-(methoxymethyl)-7-(3-morpholin-4-yl-3-oxopropyl)-IH-imidazo[4,5-c]quinolin-1-yl]-2-methylpropan-2-ol], 215 to 217 °C.
On to `CN(C)C(=O)CCc1ccc2c(c1)nc(N)c1nc(CO)n(CC(C)(C)O)c12` [Example 111, 3-[4-Amino-2-(hydroxymethyl)-1-(2-hydroxy-2-methylpropyl)-1H-imidazo[4,5-c]quinolin-7-yl]-N,N-dimethylpropanamide], for which the melting point fell in the range of 228 to 230 °C.
`CCc1nc2c(N)nc3cc(CCC(N)=O)ccc3c2n1CC1CCOCC1` [Example 122, 3-[4-Amino-2-ethyl-1-(tetrahydro-2H-pyran-4-ylmethyl)-1H-imidazo[4,5-c]quinolin-7-yl]propanamide] had a melting point of 197 to 199 °C.
Compound `CCc1nc2c(N)nc3cc(CCCNC(=O)NC(C)C)ccc3c2n1CC1CCOCC1` [Example 126, N-{3-[4-amino-2-ethyl-1-(tetrahydro-2H-pyran-4-ylmethyl)-1H-imidazo[4,5-c]quinolin-7-yl]propyl}-N′-isopropylurea] gave a melting point of 213 to 216 °C.
On to `CCc1nc2c(N)nc3cc(/C=C/C(=O)N(C)C)ccc3c2n1CC1CCOCC1` [Example 128, (2E)-3-[4-Amino-2-ethyl-1-(tetrahydro-2H-pyran-4-ylmethyl)-1H-imidazo[4,5-c]quinolin-7-yl]-N,N-dimethylprop-2-enamide], for which the melting point is > 260 °C.
For the compound `CCc1nc2c(N)nc3cc(CCC(=O)N4CCOCC4)ccc3c2n1CC(C)(C)O` [Example 98, 3-[4-Amino-2-ethyl-1-(2-hydroxy-2-methylpropyl)-1H-imidazo[4,5-c]quinolin-7-yl]-1-(morpholin-4-yl)propan-1-one], the melting point is 237 to 239 °C.
In the case of `CCc1nc2c(N)nc3cc(CCC#N)ccc3c2n1CC1CCOCC1` [Example 121, 3-[4-Amino-2-ethyl-1-(tetrahydro-2H-pyran-4-ylmethyl)-1H-imidazo[4,5-c]quinolin-7-yl]propanenitrile] it was 273 to 275 °C; in that of `CCOCc1nc2c(N)nc3cc(CCCO)ccc3c2n1CC(C)(C)O` [Example 134, 3-[4-Amino-2-(ethoxymethyl)-1-(2-hydroxy-2-methylpropyl)-1H-imidazo[4,5-c]quinolin-7-yl]propan-1-ol], 177 to 178 °C.
As to `CCOCc1nc2c(N)nc3cc(C=O)ccc3c2n1CC(C)(C)O` [Example 133, 4-Amino-2-(ethoxymethyl)-1-(2-hydroxy-2-methylpropyl)-1H-imidazo[4,5-c]quinoline-7-carbaldehyde], the melting point was 203 to 205 °C.
For `CCCNC(=O)NCCCCc1ccc2c(c1)nc(N)c1nc(COCC)n(CCCOC(C)C)c12` [Example 6, N-{4-[4-Amino-2-ethoxymethyl-1-(3-isopropxypropyl)-1H-imidazo[4,5-c]quinolin-7-yl]butyl}-N′-propylurea], the melting point was 134.5 to 135.5 °C.
As to `CCc1nc2c(N)nc3cc(/C=C/C(=O)N4CCOCC4)ccc3c2n1CC1CCOCC1` [Example 130, 2-Ethyl-7-[(1E)-3-morpholin-4-yl-3-oxoprop-1-enyl]-1-(tetrahydro-2H-pyran-4-ylmethyl)-1H-imidazo[4,5-c]quinolin-4-amine], the melting point was > 260 °C.
The compound `CC(C)(O)Cn1c(CO)nc2c(N)nc3cc(CCS(C)(=O)=O)ccc3c21` [Example 105, 1-{4-Amino-2-(hydroxymethyl)-7-[2-(methylsulfonyl)ethyl]-1H-imidazo[4,5-c]quinolin-1-yl}-2-methylpropan-2-ol] came in with a melting point of 221 to 223 °C.
For `COc1cccc(CNCc2ccc3nc(N)c4ncn(CC(C)C)c4c3c2)c1` [Example 127, 1-Isobutyl-8-{[(3-methoxybenzyl)amino]methyl}-1H-imidazo[4,5-c]quinolin-4-amine], the melting point was in the range of 125 to 126 °C.
Turning to `CCc1nc2c(N)nc3cc(CCC(=O)N(C)C)ccc3c2n1CC(C)(C)O` [Example 100, 3-[4-Amino-2-ethyl-1-(2-hydroxy-2-methylpropyl)-1H-imidazo[4,5-c]quinolin-7-yl]-N,N-dimethylpropanamide], the melting point is 234 to 237 °C.
In turn, `CC(C)(O)Cn1c(CO)nc2c(N)nc3cc(CCC(=O)N4CCOCC4)ccc3c21` [Example 112, 1-[4-Amino-2-(hydroxymethyl)-7-(3-morpholin-4-yl-3-oxopropyl)-1H-imidazo[4,5-c]quinolin-1-yl]-2-methylpropan-2-ol] came in with a melting point of 223 to 225 °C.
The result for `CCc1nc2c(N)nc3cc(CCCNS(C)(=O)=O)ccc3c2n1CC1CCOCC1` [Example 124, N-{3-[4-Amino-2-ethyl-1-(tetrahydro-2H-pyran-4-ylmethyl)-1H-imidazo[4,5-c]quinolin-7-yl]propyl}methanesulfonamide] reads 168 to 170 °C.

By melting point is commonly meant the temperature, or range, at which the solid turns liquid.
